Results on 17 molecules are retold here after patent publication US5622947A, “Benzoheterocyclic compounds and vasopressin antagonist and oxytocin antagonist compositions containing a benzoheterocyclic compound” (Otsuka Pharmaceutical Co., Ltd., priority 1992, dated 1997).

Each structure is given as a SMILES string. Where a name gives a salt, the structure may show the parent alone.

For experiment [1], the target named is T1, V1 Recepter (rat liver plasma membrane preparations) (Rattus norvegicus, UniProt P30560).
T1 construct: rat liver plasma membrane preparations; from tissue; host or cells: rat liver plasma membranes
T1 sequence (P30560 whole entry): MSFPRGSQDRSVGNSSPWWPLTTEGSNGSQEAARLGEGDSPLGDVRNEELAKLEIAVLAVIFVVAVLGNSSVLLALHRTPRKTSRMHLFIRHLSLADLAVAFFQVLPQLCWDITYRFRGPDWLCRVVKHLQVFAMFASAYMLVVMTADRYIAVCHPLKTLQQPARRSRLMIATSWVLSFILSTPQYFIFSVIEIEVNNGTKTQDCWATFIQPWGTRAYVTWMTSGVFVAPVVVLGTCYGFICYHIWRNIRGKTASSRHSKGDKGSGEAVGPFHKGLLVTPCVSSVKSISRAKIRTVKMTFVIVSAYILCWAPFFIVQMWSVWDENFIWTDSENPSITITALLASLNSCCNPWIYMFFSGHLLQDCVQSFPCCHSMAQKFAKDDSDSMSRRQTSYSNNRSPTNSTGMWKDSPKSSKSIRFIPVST
Put plainly: V1 Recepter binding assay. The note with it: [3H]-Arg-vasopressin 2×10^-10 M, 37° C., 10 minutes, pH 8.0, rat liver plasma membrane. On the procedure: Test-1: V1 Recepter binding assay
By using rat liver plasma membrane preparations prepared according to Ichiraha's method [by Akira Ichihara: J. Bio. Chem., 258, 9283 (1983)], the plasma membrane (50,000 dpm, 2×10^-10 M) of [^3 H]-Arg-vasopressin and a test compound (60 μg, 10^-8 to 10^-4 M) were incubated at 37° C. for 10 minutes in 250 μl (in total volume) of 100 mM Tris-HCl buffer (pH=8.0), containing 5 mM MgCl2, 1 mM EDTA and 0.1% BSA. After the incubation, the mixture was filtered three times by using a glass filter (GF/F) so as to separate the membrane preparation by combining with vasopressin and then washed with the buffer (5 ml). This glass filter was taken out and mixed with a liquid of scintillation cocktail. The amount of [^3 H]-vasopressin combining with the membrane was measured by liquid scintillation counter and the rate of inhibitory effect of the test compound was calculated according to the following equation: […]
C1 : the amount of [^3 H]-vasopressin combining with the membrane in the presence of the test compound of a known amount,
(§1) C0 : the amount of [^3 H]-vasopressin combining with the membrane in the absence of the test compound,
B1 : the amount of [^3 H]-vasopressin combining with the membrane in the presence of the excess amount of vasopressin (10^-6 M).
The results are expressed as IC50 value, which is the concentration of the test compound required to achieve the inhitory effect in the rate of 50% and are shown in the following Table 156.

For experiment [2], the target named is T2, V2 Recepter (rat kidney plasma membrane preparations) (Rattus norvegicus, UniProt Q00788).
T2 construct: rat kidney plasma membrane preparations; from tissue; host or cells: rat kidney plasma membranes
T2 sequence (Q00788 whole entry): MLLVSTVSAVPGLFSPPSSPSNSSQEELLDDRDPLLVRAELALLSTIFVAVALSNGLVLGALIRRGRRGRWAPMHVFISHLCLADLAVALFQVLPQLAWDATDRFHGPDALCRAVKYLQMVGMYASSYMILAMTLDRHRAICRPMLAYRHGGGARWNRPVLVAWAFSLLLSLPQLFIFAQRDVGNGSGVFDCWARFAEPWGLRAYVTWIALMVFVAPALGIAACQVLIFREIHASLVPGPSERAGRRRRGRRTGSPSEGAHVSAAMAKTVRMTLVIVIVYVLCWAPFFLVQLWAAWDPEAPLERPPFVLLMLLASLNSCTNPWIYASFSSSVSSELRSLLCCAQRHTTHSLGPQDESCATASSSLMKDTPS
The experiment in a line: V2 Recepter binding assay. The note with it: [3H]-Arg-vasopressin 4×10^-10 M, 4° C., pH 8.0, rat kidney plasma membrane. On the procedure:
Test 2: V2 Recepter binding assay
By using rat kidney plasma membrane preparations prepared according to Hechter's method [by O. Hechter: J. Bio. Chem., 2.53, 3211 (1978)], the plasma membrane (100,000 dpm, 4×10^-10 M) of [^3 H]-Arg-vasopressin and a test compound (0.6 mg, 10^-10 to 10^-5 M) were incubated at 4° C. for 3 hours in 250 μl (in total volume) of 100 mM Tris-HCl buffer (pH=8.0), containing, 5 mM MgCl2, 1 mM EDTA and 0.1% BSA. After the incubation, the mixture, the mixture was filtered by using a glass filter (GF/F) so as to separate the membrane preparation combining with vasopressin, then washed twice with the buffer (5 ml). This glass filter was taken out and mixed with liquid scintillation cocktail. The amount of [^3 H]-vasopressin combining with the membrane was measured by a liquid scintillation counter and the rate of inhibitory effect of the test compound was calculated according to the following equation: Rate of the inhibitory
C1 : the amount of [^3 H]-vasopressin combining with the membrane in the presence of the testcompound of a known amount,
as §1
B1 : the amount of [^3 H]-vasopressin combining with the mebrane in the presence of the excess amount of vasopressin (10^-6 M).
The results are expressed as IC50 value, which is the concentration of the test compound required to achieve the inhibitory effect in the rate of 50%, and are shown in the following Table 157.

For experiment [3], the target named is T3, Oxytocin receptor (uterin muscle membrane preparation) (Rattus norvegicus, UniProt P70536).
T3 construct: was homogenized, which was used as a membrane; from tissue; host or cells: uterine muscle membranes from diethylstilbestrol-treated animals
T3 sequence (P70536 1-388): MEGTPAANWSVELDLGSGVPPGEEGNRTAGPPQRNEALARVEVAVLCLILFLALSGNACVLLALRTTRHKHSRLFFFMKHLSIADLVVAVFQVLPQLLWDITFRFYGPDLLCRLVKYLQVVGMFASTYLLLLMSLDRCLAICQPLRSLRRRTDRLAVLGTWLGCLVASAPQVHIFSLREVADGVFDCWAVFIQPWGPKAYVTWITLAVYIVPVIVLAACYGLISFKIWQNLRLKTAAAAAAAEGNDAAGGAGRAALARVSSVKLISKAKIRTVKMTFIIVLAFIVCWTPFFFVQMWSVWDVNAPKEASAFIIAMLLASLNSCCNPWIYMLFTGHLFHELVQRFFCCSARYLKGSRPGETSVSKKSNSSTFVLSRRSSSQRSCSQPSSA
Put plainly: Oxytocin receptor binding assay. To be noted: [3H]-oxytocin 10^-9 M, 25°, one hour, pH 8.0, uterin muscle membrane, DES-treated. On the procedure:
Test-5 Oxytocin receptor binding assay
In accordance with Chan's method [by W. Y. Chan, et al.: Endocrinology, 126, 2095-2101 (1990)], the uterin muscle benn injected subcutaneously with diethylstilbe-sterol (DES) the day before and was homogenized, which was used as a membrane prepara tion. The membrane preparation (0.2 mg), [^3 H]-oxytocin (100,000 dpm, 10^-9 M), a test compound (10^-9 to 10^-5 M) were incubated at 25°. for one hour in 100 mM Tris-HCl buffer (pH=8.0, 250 μl) containing 5 mM MgCl2, 1 mM EDTA and 0.1% BSA. The mixture was filtered through a glass filter (GF/F) so as to separate the membrane preparation combining with [^3 H]-oxytocin, then, was washed twicw with the buffer (5 ml). The glass filter was put into a vial and mixed with Aquasole (a liquid scintillation cocktail). The amount of [^3 H]-oxytocin combining w ith the membrane was measured by a liquid scintillation counter. The rate of the inhibitory effect of the test compound was calculated according to the equation as follows: […]
C1 : the amount of [^3 H]-oxytocin combining with the membrane in the presence of a test compound (in known amount),
C0 : the amount of [^3 H]-oxytocin combinig with the membrane in the absence of a test compound,
B: the amount of [^3 H]-oxytocin combining with the membrane in the presence of the excess amount of oxytocin (5×10^-6 M).
The results are expressed as IC50 values, which is the concentration of the test compound required to achieve the inhibitory effect in the rate of 50%.

Usually IC50 stands for the midpoint of a concentration-inhibition curve. The low end stands for inhibition by little substance, the high end for a need for much substance. Turning to `COc1cc(C(=O)N2CCCCc3cc(Cl)ccc32)ccc1NC(=O)c1ccccc1OCCCN1CCC(NC(C)=O)CC1` (single isomer, unassigned) [Example 72, 7-Chloro-1-[3-methoxy-4-{2-[3-(4-acetylamino-1-piperidinyl)propoxy]benzoylamino}benzoyl]-2,3,4,5-tetrahydro-1H-benzoazepine], the IC50 in experiment [1] worked out at 1.2 nM; in experiment [2] it was 74 nM.
With `Cc1cc(NC(=O)c2ccccc2Cl)ccc1C(=O)N1CCCC(CCNC2CC2)c2cc(Cl)ccc21` (stereo not drawn) [Example 102, 5-(2-Cyclopropylaminoethyl)-7-chloro-1-[2-methyl-4-(2-chlorobenzoylamino)benzoyl]-2,3,4,5-tetrahydro-1H-benzoazepine.cndot.hydrochloride], the IC50 was determined as 2900 nM in experiment [3] and 7.1 nM in experiment [2].
For the molecule `C=CCN(C)CCC1CCCN(C(=O)c2ccc(NC(=O)c3ccccc3Cl)cc2C)c2ccc(Cl)cc21` (stereo not drawn) [Example 100], the IC50 was 4040 nM in experiment [3] and 4.7 nM in experiment [2].
As for `C#CCNCCC1CCCN(C(=O)c2ccc(NC(=O)c3ccccc3Cl)cc2C)c2ccc(Cl)cc21` (stereo not drawn) [Example 103, 5-(2-Propargylaminoethyl)-7-chloro-1-[2-methyl-4-(2-chlorobenzoylamino)benzoyl]-2,3,4,5-tetrahydro-1H-benzoazepine.cndot.hydrochloride], the values for the IC50 in experiment [3] and in experiment [2] were 3000 nM and 8 nM, respectively.
For `Cc1cc(NC(=O)c2ccccc2Cl)ccc1C(=O)N1CCCC(CCN2CCCC2)c2cc(Cl)ccc21` (stereo not drawn) [Example 97, 5-[2-(1-Pyrrolidinyl)ethyl]-7-chloro-1-[2-methyl-4-(2-chlorobenzoylamino)benzoyl]-2,3,4,5-tetrahydro-1H-benzoazepine.cndot.hydrochloride] the same measures were 4070 nM and 7.2 nM.
Turning to `C=CCOC1CCCN(C(=O)c2ccc(NC(=O)c3ccccc3C)cc2)c2ccc(Cl)cc21` (stereo not drawn) [Example 64, 5-Allyloxy-7-chloro-1-[4-(2-methylbenzoylamino)benzoyl]-2,3,4,5-tetrahydro-1H-benzoazepine], in experiment [1], the IC50 worked out at 45 nM.
`CCN(CC)CCN(C)C(=O)CC1CCCN(C(=O)c2ccc(NC(=O)c3ccccc3Br)c(OC)c2)c2ccc(Cl)cc21` (stereo not drawn) [Example 91, 5-[N-Methyl-N-(2-diethylaminoethyl)amino]-carbonylmethyl-7-chloro-1-[3-methoxy-4-(2-bromobenzoylamino)benzoyl]-2,3,4,5-tetrahydro-1H-benzoazepine]: the IC50 in experiment [1] was 2.6 nM; in experiment [2] it was 3.5 nM.
For `COc1cc(C(=O)N2CCCC(OCC(=O)N3CCCN(C)CC3)c3cc(Cl)ccc32)ccc1NC(=O)c1ccccc1Br` (stereo not drawn) [Example 166, 5-(4-Methyl-1-homopiperazinyl)carbonylmethoxy-7-chloro-1-[3-methoxy-4-(2-bromobenzoylamino)benzoyl]-2,3,4,5-tetrahydro-1H-benzoazepine] the same measures were 4.8 nM and 10 nM.
As to `C=CCNCCC1CCCN(C(=O)c2ccc(NC(=O)c3ccccc3Cl)cc2C)c2ccc(F)cc21` (stereo not drawn) [Example 101, 5-(2-Allylaminoethyl)-7-fluoro-1-[2-methyl-4-(2-chlorobenzoylamino)benzoyl]-2,3,4,5-tetrahydro-1H-benzoazepine], the values for the IC50 in experiment [3] and in experiment [2] were 5300 nM and 7 nM, respectively.
As for `CC(=O)NC1CCN(CCOC2CCCN(C(=O)c3ccc(NC(=O)c4ccccc4Cl)cc3C)c3ccc(Cl)cc32)CC1` (stereo not drawn) [Example 75, 5-[2-(4-Acetylamino-1-piperidinyl)ethoxy]-7-chloro-1-[2-methyl-4-(2-chlorobenzoylamino)benzoyl]-2,3,4,5-tetrahydro-1H-benzoazepine], the IC50 in experiment [2] was 32 nM.
As to `Cc1cc(NC(=O)c2ccccc2Cl)ccc1C(=O)N1CCCC(CCN2CCCCC2)c2cc(Cl)ccc21` (stereo not drawn) [Example 96, 5-[2-(1-Piperidinyl)ethyl]-7-chloro-1-[2-methyl-4-(2-chlorobenzoylamino)benzoyl]-2,3,4,5-tetrahydro-1H-benzoazepine.cndot.hydrochloride], the IC50 in experiment [3] stood at 4400 nM; in experiment [2], 9 nM.
Turning to `COc1cc(C(=O)N2CCCCc3cc(Cl)ccc32)ccc1NC(=O)c1ccccc1OCCCn1cncn1` [Example 73, 7-Chloro-1-[3-methoxy-4-{2-[3-(1,2,4-triazol-1-yl)-propoxy]benzoylamino}benzoyl]-2,3,4,5-tetrahydro-1H-benzoazepine], the values for the IC50 in experiment [1] and in experiment [2] were 7 nM and 80 nM, respectively.
Molecule `Cc1cc(NC(=O)c2ccccc2Cl)ccc1C(=O)N1CCCC(CCn2cncn2)c2cc(Cl)ccc21` (stereo not drawn) [Example 105, 5-[2-(1,2,4-Triazol-1-yl)ethyl]-7-chloro-1-[2-methyl-4-(2-chlorobenzoylamino)benzoyl]-2,3,4,5-tetrahydro-1H-benzoazepine] came in with a 50% inhibitory concentration (IC50) in experiment [2] of 7.5 nM.
As for `CNC(=NC#N)NCCOC1CCCN(C(=O)c2ccc(NC(=O)c3ccccc3Cl)cc2OC)c2ccc(Cl)cc21` (stereo not drawn) [Example 149, 5-[2-(3-Methyl-2-cyanogianidino)ethoxy]-7-chloro-1-[2-methoxy-4-(2-chlorobenzoylamino)benzoyl]-2,3,4,5-tetrahydro-1H-benzoazepine], the IC50 in experiment [1] is 90 nM; in experiment [2], 45 nM.
With `COc1cc(NC(=O)c2ccccc2Cl)ccc1C(=O)N1CCCC(OCCNCC#N)c2cc(Cl)ccc21` (stereo not drawn) [Example 151], the 50% inhibitory concentration (IC50) amounted to 46 nM in experiment [1] and 8 nM in experiment [2].
`COc1cc(NC(=O)c2ccccc2C)ccc1C(=O)N1CCC=C(CC(=O)N2CCN(C)CC2)c2cc(F)ccc21` [Example 86, 5-(4-Methyl-1-piperazinyl)carbonylmethyl-7-fluoro-1-[2-methoxy-4-(2-methylbenzoylamino)benzoyl]-2,3,-dihydro-1H-benzoazepine] registered an IC50 in experiment [2] of 59 nM.
With `Cc1cc(NC(=O)c2ccccc2Cl)ccc1C(=O)N1CCCC(CCn2ncnn2)c2cc(Cl)ccc21` (stereo not drawn) [Example 99], the IC50 worked out at 2800 nM in experiment [3] and 12 nM in experiment [2].
